Measured values reported in publication PMC9822155, “Synthesis and Antiproliferative Activity against Cancer Cells of Indole-Aryl-Amide Derivatives” (Molecules, 2022).

Key:
δ-OR = target: T1, δ-OR (Homo sapiens, UniProt P41143); test: Radioligand binding assay, δ-OR ([3H]deltorphin-2 displacement); conditions: [3H]deltorphin-2, membranes of CHO cells with human recombinant OR; ± SEM (n ≥ 3)
T1 construct: purchased PerkinElmer (Krakow, Poland); host or cells: CHO cells (membranes)
Description: In order to evaluate the affinity of the compounds for μ-, δ-, κ-ORs, radioligand binding assays were performed. Displacement of radioligands, [^3H]DAMGO (μ-OR selective), [^3H]deltorphin-2 (δ-OR selective), and [^3H]U-69593 (κ-OR selective) by the synthetic analogs was investigated in the commercial membranes of CHO cells transfected with human recombinant ORs. […] Due to the modest receptor affinities, the functional activity of the compounds was not investigated.
Opioid radioligands, [^3H]DAMGO, [^3H]deltorphin-2 and [^3H]U-69593, and human recombinant opioid receptors came from PerkinElmer (Krakow, Poland). GF/B glass fiber strips were purchased from Whatman (Brentford, UK).
To determine the affinity of peptide analogs at the respective receptors, competition binding experiments were performed. Commercial membranes of CHO cells stably expressing human opioid receptors and the competing radioligands, [^3H]DAMGO, [^3H]deltorphin-2, and [^3H]U-69593 for μ-OR, δ-OR, and κ-OR, respectively, were used. Membranes were incubated in 0.5 mL volume of 50 mM Tris/HCl (pH = 7.4), 0.5% bovine serum albumin (BSA), with a number of peptidase inhibitors (bacitracin, bestatin, captopril) and various concentrations of radioligands for 2 h at 25 °C. Non-specific binding was assessed in the presence of […]. Three independent experiments for each assay were carried out in duplicate. The data were analyzed by a nonlinear least square regression analysis computer program Graph Pad PRISM 6.0 (Graph Pad Software Inc., San Diego, CA, USA). The IC50 values were determined from the logarithmic concentration-displacement curves, and the values of the inhibitory constants (Ki) were calculated according to the equation of Cheng and Prusoff.

[1] = tested on: I407 (human embryonic intestinal) cells; test: MTT viability assay, I407; format: cell-based; conditions: 24 h, normal cells
Text: (§1) To investigate whether the compounds have an antitumor activity, we performed in vitro viability assays against a panel of cancer cell lines: HT29 (human colorectal adenocarcinoma), HeLa (human cervical carcinoma), IGROV-1 (human ovarian carcinoma), MCF7 (human breast cancer), PC-3 (human prostate adenocarcinoma), and Jurkat J6 (human […]). The I407 (human embryonic intestinal) and 3T3 (mouse embryonic fibroblast) cells were used as controls. The growth inhibitory concentration was determined by incubating the cells with increasing concentrations (0.01–500 μM) of the compounds for 24 h. Data obtained from cell growth assays were elaborated to assess the concentration of cell viability (IC50) and selectivity indices (SI), and the results are shown in Table 2 and Table 3, respectively.
(§2) HT29 human colorectal adenocarcinoma cells, HeLa human cervix adenocarcinoma cells, MCF7 human breast adenocarcinoma cells, PC-3 human prostate adenocarcinoma cells, J6 Jurkat Clone E6-1 acute T cell leukemia, the healthy I407 human intestine cells, and mouse embryonic fibroblast 3T3 fibroblasts as controls cell lines were purchased from American Type Culture Collection (ATCC, Manassas, VA). The human ovarian cancer cell line IGROV1 has been kindly provided by Prof. Colnaghi (Istituto Nazionale Tumori (IRCCS) (Milano, Italy). Cells were cultured in RPMI 1640 medium (Labtek Eurobio, Milan, Italy), supplemented with 10% FCS (Euroclone, Milano, Italy) and 2 mM L-glutamine (Sigma-Aldrich, Milano, Italy), at 37 °C, and a 5% CO2 atmosphere. The compounds were dissolved in DMSO in a 30–40 mM stock solution. In cell treatments, the final DMSO concentration never exceeded 0.1%.
(§3) Cells were seeded at 1.5 × 10^4 cells/well in a 96-well culture plastic plate (Sarsted, Milan, Italy), and after 24 h of growth were exposed to increasing concentrations of each distinct compound (from 0.010 μM to 500 μM) solubilized in RPMI 1640 medium. MTT assay was performed according to the literature. In brief, after 24 h of treatment, the culture medium was replaced with 0.1 mL of 3-(4,5-dimethylthiazolyl-2)-2,5-diphenyltetrazolium bromide (MTT, Sigma-Aldrich, Milano, Italy) dissolved in PBS at the concentration of 0.2 mg/mL, and samples were incubated for 2 h at 37 °C. The absorbance at 570 nm was measured using a multiwell plate reader (Tecan, Männemorf, Switzerland), and data were analyzed by Prism GraphPad software, and expressed as IC50 μM.

[2] = tested on: HT29 (human colorectal adenocarcinoma) cells; test: MTT viability assay, HT29; format: cell-based
Text: as §1, §2, §3

[3] = tested on: IGROV-1 (human ovarian carcinoma) cells; test: MTT viability assay, IGROV-1; format: cell-based; conditions: 24 h
Text: as §1, §2, §3

[4] = tested on: MCF7 (human breast cancer) cells; test: MTT viability assay, MCF7; format: cell-based; conditions: Homo sapiens, MCF7; MTT, 24 h
Text: as §1, §2, §3

Jurkat J6 cells = test: MTT viability assay, Jurkat J6; format: cell-based, human
Text: as §1, §2, §3

HT29 cells = test: Cell cycle analysis by flow cytometry (PI staining); format: cell-based, human; conditions: HT29, 5 μM, 24 h
Description: HT29 cells were treated with 1 or 5 μM 5 for 24 h and analyzed by flow cytometry after DNA staining. […] In contrast, 5-treated HT29 cells accumulated in the G0/G1 phase in a dose-dependent manner, with a nearly complete synchronization (84% ± 0.9) after 5 μM treatment.
HT29 were plated at density of 20,000 cell/cm^2 in dish and after 24 h treated with 1 or 5 μM of 5 for 24 h. The samples were prepared in according to Calonghi. In brief, untreated and treated cells were detached, washed in PBS and the pellet was finally re-suspended in 0.01% Nonidet P-40 (Sigma-Aldrich, Milano, Italy), 10 μg/mL RNase (Sigma-Aldrich, Milano, Italy), 0.1% sodium citrate (Sigma-Aldrich, Milano, Italy), 50 μg/mL propidium iodide (PI) (Sigma-Aldrich, Milano, Italy), for 30 min at room temperature in the dark. Propidium iodide (PI) fluorescence was acquired on a linear scale and analysed by Modfit software version 5.2 (USA). Flow cytometric assays were performed on a Brite HS flow cytometer (Bio-Rad, Watford, UK) equipped with a Xe/Hg lamp.

T1 sequence (P41143 whole entry): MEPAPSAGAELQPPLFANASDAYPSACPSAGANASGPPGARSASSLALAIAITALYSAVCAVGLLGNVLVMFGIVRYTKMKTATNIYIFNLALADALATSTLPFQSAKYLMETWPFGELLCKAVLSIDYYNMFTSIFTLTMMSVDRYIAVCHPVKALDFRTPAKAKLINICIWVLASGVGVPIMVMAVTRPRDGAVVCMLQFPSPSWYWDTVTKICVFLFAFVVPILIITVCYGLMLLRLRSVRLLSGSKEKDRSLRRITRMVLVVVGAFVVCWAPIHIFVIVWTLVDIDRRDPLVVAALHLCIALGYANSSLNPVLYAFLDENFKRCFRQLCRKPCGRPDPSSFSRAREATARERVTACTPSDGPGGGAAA

Structure (SMILES): Nc1ccc(CN(Cc2ccc(O)cc2)C(=O)Cc2c[nH]c3ccccc23)cc1 [Compound 5]
- Ki (δ-OR): 10.8 ± 1.3 µM
- IC50 [µM] I407 [1]: no activity
- IC50 ([1]; Homo sapiens): > 500 µM
- Selectivity Index IC503T3/ IC50HT29 ([2]; 3T3 normal cells as reference): 12.26
- IC50 ([2]; Homo sapiens, HT-29, MTT, 24 h): 2.61 ± 0.05 µM
- IC50 [3]: > 500 µM
- IC50 [4]: > 500 µM
- Selectivity Index IC503T3/ IC50J6 (Jurkat J6 cells; 3T3 normal cells as reference): 86.487
- IC50 (Jurkat J6 cells; Homo sapiens, Jurkat, MTT, 24 h): 0.37 ± 0.04 µM
- Cells in G0/G1 phase (HT29 cells): 84% ± 0.9
